Assay results taken from US20120264786A1, “USE OF THIAZOLIDINEDIONES FOR THE PARTIAL INHIBITION OF ANDROGEN BINDING TO AROMATASE” (priority 2008, published 2012).

Experiments:
aromatase enzyme [1] = biological target: T1, aromatase enzyme (Homo sapiens, UniProt P11511); test: 125I-testosterone binding to immunoprecipitated aromatase enzyme; conditions: for inhibition at 25 µM: 1 μM testosterone, vs control
T1 construct: The aromatase enzyme was immunoprecipitated as described above; endogenous in cells; host or cells: primary granulosa cells (human), lysate immunoprecipitated with anti-human aromatase antibody and Protein A-agarose
T1 sequence (P11511 1-503): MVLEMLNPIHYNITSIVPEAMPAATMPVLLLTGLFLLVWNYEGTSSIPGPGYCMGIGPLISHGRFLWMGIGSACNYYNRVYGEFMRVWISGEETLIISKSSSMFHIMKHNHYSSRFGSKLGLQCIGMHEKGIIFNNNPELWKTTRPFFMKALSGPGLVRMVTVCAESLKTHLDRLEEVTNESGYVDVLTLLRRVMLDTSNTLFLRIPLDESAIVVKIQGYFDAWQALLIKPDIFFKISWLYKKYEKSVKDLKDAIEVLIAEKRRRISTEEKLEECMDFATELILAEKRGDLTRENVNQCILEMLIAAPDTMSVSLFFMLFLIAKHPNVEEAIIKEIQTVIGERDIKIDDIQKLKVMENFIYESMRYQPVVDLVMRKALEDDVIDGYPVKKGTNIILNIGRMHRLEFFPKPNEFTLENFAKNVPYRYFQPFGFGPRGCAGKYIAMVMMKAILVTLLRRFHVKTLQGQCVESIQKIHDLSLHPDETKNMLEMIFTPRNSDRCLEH
Method: (§1) Rabbit polyclonal anti-human aromatase antibodies (1.4 μg) (Abcam, Inc. Cambridge, Mass.) were added to 1 ml of cell lysate. The lysate buffer contained 20 mM Tris-HCl (pH 7.4), 150 mM NaCl, 1 mM CaCl2, 1 mM MgCl2, 1 mM Na orthovanadate, 1% NP40, 1 mM AEBSF (4-2-aminoethyl-benzenesulfonyfluoride, hydrochloride), 0.8 μM aprotinin, 50 μM bestain, 15 μM E-64, 20 μM leupeptin, 10 μM pepstatin A, 1 mM phenylmethylsulfonyl fluoride and 10 μg/ml trypsin inhibitor. The lysate was centrifuged at 6,000 rpm for 3 min and the supernatant was transferred into another micro-centrifuge tube. […] Metab. 92: 2232-2239, 2007, which is incorporated herein by reference. The mixture was incubated for 3-4 h at 4° C. After Protein A-agarose was added, the mixture was incubated again overnight at 4° C. The immunoprecipitate complexes were collected by centrifugation and washed. The samples were then resuspended in 2× Laemmli buffer (BioRad, Hercules, Calif.) supplemented with 1 mM DTT (Cleland's reagent, 1, 4-dithiothreitol, threo-1, 4-dimercapto-2, 3-butanediol, Roche Inc, Indianapolis, Ind.). […] The bands were detected by chemiluminescence (Pierce, Rockford, Ill.). For the analysis of the expression of aromatase, NIH Scion Imaging program was used to evaluate integrated band intensity.
(§2) The aromatase enzyme was immunoprecipitated as described above. Purified aromatase bound to Protein A-agarose was added to 250 μl of solution containing the final concentration of 1 μM testosterone (2 μCi of [125I]/m1 testosterone with the specific radioactivity of 857 μCi/nmol) or androstenedione (3.5 μCi of [125I]/ml androstenedione with the specific radioactivity of 430 μCi/nmol), with insulin (0, 10, 10^2, 10^3 ng/ml) and with or without 25 μM rosiglitazone or pioglitazone. The mixture was incubated at room temperature for 30 min and then centrifuged at 6000 rpm for 3 min. The pellets were washed two times with 400 μl Dulbecco's phosphate saline. The bound testosterone or androstenedione, expressed as % of total testosterone or androstenedione, was measured in Wizard gamma counter.

aromatase mRNA = test: RT-PCR analysis of aromatase mRNA expression in granulosa cells; format: cell-based, human; conditions: androstenedione or testosterone as substrate
aromatase enzyme [2] = biological target: T1, aromatase enzyme; test: 125I-androstenedione binding to immunoprecipitated aromatase enzyme; conditions: for inhibition at 25 µM: 1 μM androstenedione, vs control
Method: as §1, §2

Human granulosa cells [3] = test: Estrone production by cultured human granulosa cells with androstenedione as substrate (ELISA/RIA); format: cell-based; conditions: 3 μM androstenedione
Method: (§3) Human granulosa cells were obtained during in vitro fertilization over the course of 18 months and were pooled from several patients at a time to ensure adequate cell number for the experiments. The diagnoses included male factor, tubal factor and uterine factor infertility, endometriosis and anovulation. […] La Jolla, Calif.). Estrone and estradiol concentrations in the tissue culture medium were measured using enzyme-linked immuno-sorbent assay (ELISA) (Alpco Diagnostics, Salem, N.H.) or radioimmunoassay (RIA) (Diagnostic Systems Laboratories, Webster, Tex.). […] The statistical interactions between the sets of data obtained with or without rosiglitazone or pioglitazone and with or without aromatase inhibitor I were examined. Pairwise Bonferroni-adjusted contrasts were used to determine statistical significance. […] Adjustments were made for initial inhibition of estradiol or estrone production induced by rosiglitazone or pioglitazone in the absence of insulin, with or without aromatase inhibitor I.

Human granulosa cells [4] = test: Estradiol production by cultured human granulosa cells with testosterone as substrate (ELISA/RIA); format: cell-based; conditions: 3 μM testosterone; for reduction of the inhibitory effect on insulin-induced estradiol production: in the presence of aromatase inhibitor I and insulin, FIG. 2A vs FIG. 2C
Method: as §3

[5] = tested on: aromatase enzyme (protein) expression; test: Aromatase enzyme expression by immunoprecipitation and immunoblotting in granulosa cells; format: cell-based, human; conditions: androstenedione or testosterone as substrate; for effect on aromatase enzyme expression: 25 μM, absence or presence of insulin, vs control
Method: as §1, with “La Jolla, Calif.). […]” for “Rabbit polyclonal anti-human aromatase antibodies (1.4 μg) (Abcam, Inc.”, “The lysate buffer contained 20 mM Tris-HCl (pH 7.4), 150 mM NaCl, 1 mM CaCl2, 1 mM MgCl2, 1 mM Na orthovanadate, 1% NP40, 1 mM AEBSF (4-2-aminoethyl-benzenesulfonyfluoride, hydrochloride), 0.8 μM aprotinin, 50 μM bestain, 15 μM E-64, 20 μM leupeptin, 10 μM pepstatin A, 1 mM phenylmethylsulfonyl fluoride and 10 μg/ml trypsin inhibitor.” left out

[6] = 25 μM, absence or presence of insulin, vs control
[7] = 25 μM TZD, presence of insulin, absence of aromatase inhibitor I, vs control without TZD
[8] = insulin, absence of aromatase inhibitor I, vs baseline
[9] = in the presence of aromatase inhibitor I

inhibition at 25 µM (aromatase enzyme [1]) [%]	inhibition at 25 µM (aromatase enzyme [2]) [%]	effect on the binding of testosterone to aromatase (aromatase enzyme [1]; insulin alone)	effect on the binding of androstenedione to aromatase (aromatase enzyme [2]; insulin alone)	Molecule	effect on aromatase mRNA (aromatase mRNA; [6])	inhibition of estrone production (Human granulosa cells [3]; [7]) [%]	inhibition of estradiol production (Human granulosa cells [4]; [7]) [%]	reduction of the inhibitory effect on insulin-induced estradiol production (Human granulosa cells [4]) [%]	effect on aromatase enzyme expression [5]	effect on aromatase mRNA (aromatase mRNA; insulin alone)	stimulation of estrone production (Human granulosa cells [3]; [8]) [%]	stimulation of estradiol production (Human granulosa cells [4]; [8]) [%]	effect on aromatase enzyme (protein) expression ([5]; insulin alone)	inhibition of estrone production (Human granulosa cells [3]; aromatase inhibitor 100 to 200 nM) [%]	inhibition of estradiol production (Human granulosa cells [4]; [9]) [%]	insulin-induced stimulation of estradiol production (Human granulosa cells [4]; [9])
32	20	–	–	CCc1ccc(CCOc2ccc(CC3SC(=O)NC3=O)cc2)nc1 (centres unmarked) [pioglitazone]	no significant effect	22	34	62	no significant effect	–	–	–	–	–	–	–
–	–	no effect	no effect	insulin: insulin added to granulosa cell culture (0-10^4 ng/ml)	–	–	–	–	–	no effect	114	124	did not affect	–	–	–
38	20	–	–	CN(CCOc1ccc(CC2SC(=O)NC2=O)cc1)c1ccccn1 (centres unmarked) [rosiglitazone]	no significant effect	22	34	62	no significant effect	–	–	–	–	–	–	–
–	–	–	–	4-(imidazolylmethyl)-1-nitro-9H-9-xanthenone [aromatase inhibitor I]	–	–	–	–	–	–	–	–	–	55	72	completely abolished
